Data published in patent publication US20110195425A1, “SYSTEMS AND METHODS FOR DIAGNOSING PARASITE INFECTIONS” (priority 2010, published 2011).
Several values for one entry are separate records, joined by “and”; a condition that tells them apart may be missing. Identical values can stand only once.

Columns and labels:
[1] = target: T1, α-amylase (Homo sapiens, UniProt P0DUB6); assay: α-Amylase inhibition saliva screening (2-chloro-p-nitrophenol-maltotriose substrate, absorbance 405 nm); format: biochemical; settings: for Ave (α-amylase assay reading): average of four readings; for α-amylase assay single reading (absorbance at 405 nm): saliva, test compound prepared at 5,000 ppm, 37° C., replicate readings
T1 sequence (P0DUB6 16-511): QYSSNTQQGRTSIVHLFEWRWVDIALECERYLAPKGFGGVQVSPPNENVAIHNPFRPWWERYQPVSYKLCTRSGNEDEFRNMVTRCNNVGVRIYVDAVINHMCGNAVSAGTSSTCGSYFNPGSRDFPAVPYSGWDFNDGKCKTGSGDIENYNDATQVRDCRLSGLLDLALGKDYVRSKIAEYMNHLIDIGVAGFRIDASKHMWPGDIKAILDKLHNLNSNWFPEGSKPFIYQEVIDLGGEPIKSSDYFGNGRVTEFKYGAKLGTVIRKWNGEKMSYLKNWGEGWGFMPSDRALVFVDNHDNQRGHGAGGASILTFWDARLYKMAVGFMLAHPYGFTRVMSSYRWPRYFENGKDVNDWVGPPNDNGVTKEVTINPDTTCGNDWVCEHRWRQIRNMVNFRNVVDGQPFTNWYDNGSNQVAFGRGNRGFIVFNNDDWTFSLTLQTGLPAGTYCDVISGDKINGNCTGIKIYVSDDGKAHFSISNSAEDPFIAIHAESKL
Description: Enzymatic activity of α-amylase on the substrate yields 2-chloro-p-nitrophenol, which can be measured spectrophotometrically at 405 nm. The amount of α-amylase activity present in the experimental sample is directly proportional to the increase in absorbance at 405 nm.

[2] = test system: peroxidase; assay: Peroxidase assay in saliva (Amplex Red); format: biochemical; settings: single compounds at 500 ppm; pooled and unpooled saliva; 30 minutes; FIGS. 26-29
Method: To determine the effect of various GRAS compounds as inhibitors of peroxidase activity, a standard assay using Amplex® Red (Life Technologies), which releases a fluorescent oxidation product.
The test compounds, such as GRAS materials or cocktails of same, were prepared at a concentration of 500 ppm in distilled water. For the assay, 50 μl samples of test compounds were mixed with 20-30 μl of saliva (either “pooled” or “unpooled”) prior to the addition of Amplex® Red. Following the mixture of the test compounds with saliva, […] Amplex® Red/HRP working solution (See Protocol for Invitrogen Assay #A22188, which is incorporated herein in its entirety), which has a concentration of 100 μM of Amplex® Red, is added to the test compound/saliva mixture. […] Reactions were allowed to run for 30 minutes during these assays.

## Aluminum sulfate hydrate [CDI-34]
[1]; 0 min
  Ave (α-amylase assay reading): 0.40
[1]; 0 min, sulfate hydrate
  α-amylase assay single reading (absorbance at 405 nm): 0.40 (2×) and 0.36 and 0.45
[1]; 5 min
  Ave (α-amylase assay reading): 0.50
[1]; 5 min, sulfate hydrate
  α-amylase assay single reading (absorbance at 405 nm): 0.49 and 0.50 (2×) and 0.52
[1]; 15 min
  Ave (α-amylase assay reading): 0.56
[1]; 15 min, sulfate hydrate
  α-amylase assay single reading (absorbance at 405 nm): 0.53 and 0.61 and 0.54 and 0.56

## COc1ccc(O)c(C(C)(C)C)c1 [CDI-039, 3-tert--butyl-hydroxyanisole]
[2]
  peroxidase inhibition: significant peroxidase inhibition capabilities

## Aluminum potassium sulfate dodecahydrate [CDI-42]
[1]; 0 min
  Ave (α-amylase assay reading): 0.92
  α-amylase assay single reading (absorbance at 405 nm): 0.80 and 1.13 and 0.90 and 0.84
[1]; 5 min
  Ave (α-amylase assay reading): 1.85
  α-amylase assay single reading (absorbance at 405 nm): 1.65 and 2.15 and 1.80 and 1.81
[1]; 15 min
  Ave (α-amylase assay reading): 2.29
  α-amylase assay single reading (absorbance at 405 nm): 2.37 and 2.38 and 2.25 and 2.17
[2]
  peroxidase inhibition: significant peroxidase inhibition capabilities

## Cn1c(=O)c2c(ncn2C)n(C)c1=O [CDI #33, Caffeine]
[2]
  peroxidase inhibition: significant peroxidase inhibition capabilities
